Experimental data from patent US9650369B2, “Anti-migration and anti-invasion thiazole analogs for treatment of cellular proliferative disease” (XAVIER UNIVERSITY OF LOUISIANA, priority 2012, dated 2017).
Entries after “also recorded” stand apart in the source; their conditions may differ. Read-outs that look alike come from different tables or passages of the source.

Experiments:
Format in all cases: cell-based
HeLa cells [1] = test: colony formation, HeLa
Source text: (§1) Based on the potent effects of synthetic thiazole analogs in blocking migration of MDA-MB-231 cells, ten analogs with high anti-migration activity but low or negligible cytotoxicity were selected to test their anti-migration activity in another metastatic cell line, HeLa. […] On the other hand, the analog 5i was not toxic to 231 cells, but it suppressed the clonogenic capability of HeLa cells by 45%. […] Thus 5k may be further evaluated for its potential as an anti-migration and anti-metastatic agent.

[2] = tested on: MDA-MB-231 breast cancer cells; test: clonogenic assay (colony formation), MDA-MB-231; details: for activity at 10 µM / inhibition at 10 µM: Homo sapiens, 336 h; for activity at 10 µM: read-out: Effect on cell proliferation (colony formation) (% of vehicle control); for inhibition at 10 µM / cytotoxicity (in words): MDA-MB-231, 10 μM, two weeks
Protocol: (§2) To determine if these analogs have anti-migration and anti-invasion activities in different cancer cell lines, transwell migration assays were performed using MDA-MB-231 breast cancer cells (FIG. 3) and HeLa cells (FIG. 5) for all synthetic analogs. […] Next, clonogenic assays were performed on the breast cancer cells treated with the compounds to rule out any indirect effect on cell migration due to cytotoxicity (FIG. 4). MDA-MB-231 cells were allowed to grow for 14 days in six-well plates in the presence or absence of the synthetic compounds at 10 μM.
To rule out any indirect effect on cell migration due to cytotoxicity, clonogenic assays were performed on the breast cancer cells treated with the compounds. MDA-MB-231 cells were allowed to grow for 14 days in six-well plates in the presence or absence of the synthetic compounds at 10 μM. […] For example, analog 3g blocked both cell migration (81.4%) and colony formation (42.7%). For these analogs cytotoxity may have partially contributed to their overall anti-migration effect. The cell toxicity data for all analogs are listed in Table 1 along with anti-migration data for comparison.

[3] = tested on: MDA-MB-231 breast cancer cells; test: transwell migration assay, MDA-MB-231; details: for inhibition at 10 µM: MDA-MB-231, MDA-MB-231, 10 μM, read-out: inhibition of cell migration; for IC50: transwell migration of MDA-MB-231 cells, read-out: IC50 (anti-migration)
Protocol: as §2
To determine the effects of the synthesized mackroketone analogs on cancer cell migration, we performed transwell migration assay on each compound using an invasive and metastatic breast cancer cell line, MDA-MB-231. When cells were seeded at a density of 2.5×10^4 in media free of serum in the upper chamber but containing 5% FBS in the lower chamber, their ability to migrate in the presence and absence of 10 μM analogs were measured by counting the total number of cells in the lower chamber after 24 hrs.

[4] = tested on: A549 non small cell lung cancer cells; test: migration assay, A549; details: A549, 10 μM
HeLa cells [5] = test: transwell migration, HeLa; details: Homo sapiens
Protocol: as §2, §1

[6] = tested on: f-actin in membrane protrusions of MDA-MB-231 cells; test: f-actin staining of actin-rich membrane protrusions (fluorescent microscopy); details: MDA-MB-231, 10 μM, serum stimulated 2 hours; p<0.01
Source text: An essential component of migration is protrusion of the cell membrane, which is driven by actin polymerization. […] See Chen, L.; Yang. S.; Jakoncic, J.; Zhang, J. J.; Huang, X. Y. Migrastatin analogues target fascin to block tumour metastasis. Nature 2010; 464:1062-1066. Erratum in: Nature. 2011; 476:240; Hashimoto, Y., D. J. Kim, and J. C. Adams. The roles of fascins in health and disease. J. Pathol. 2011; 224:289-300; and Jayo, A., and M. Parsons. Fascin: a key regulator of cytoskeletal dynamics. Int. J. Biochem. Cell Biol. 2010; 42:1614-1617. […] See Chen, 2010. Thus, we tested the hypothesis that compound 5k interferes with f-actin in membrane protrusions associated with cell motility. MDA-MB-231 cells were serum starved −/+10 μM 5k, then stimulated with serum for 2 hours to induce actin-rich membrane protrusions, which were analyzed by fluorescent microscopy.

[7] = tested on: MDA-MB-231 breast cancer cells; test: matrigel invasion assay, MDA-MB-231; details: MDA-MB-231, matrigel
Source text: To determine if the synthetic thiazole analogs block invasion of metastatic cancer cells we performed matrigel invasion assays of MDA-MB-231 cells treated with 10 selected analogs.

[8] = tested on: fascin in MDA-MB-231 cells; test: fascin localization by immunofluorescence microscopy
Source text: Co-localization of f-actin and fascin appears as white pixels.
To further probe for a possible role of fascin in the reduction of actin-rich membrane protrusions, we determined the localization of fascin by immunofluorescence microscopy.

[9] = MDA-MB-231, 10 μM analogs, 14 days

Row | SMILES | cytotoxicity (in words) (HeLa cells [1]) | activity at 10 µM [2, 9] | inhibition at 10 µM [2] | cytotoxicity (in words) [2] | inhibition at 10 µM ([3]; Homo sapiens) | IC50 ([3]; Homo sapiens) | suppression of clonogenic capability (HeLa cells [1]) | Effect on cell proliferation (colony formation) (% of vehicle control) [2, 9] | IC50 [3] | loss of migratory capacity [4] | inhibition at 10 µM (HeLa cells [5]) | reduction in f-actin intensity [6] | blocking cell invasion (in words) [7] | localization of fascin in actin-rich membrane regions (in words) [8]
1 | CCCCCCCCCCCC(=O)Nc1nc(-c2ccccc2)cs1 [Compound 3n, N-(4-Phenylthiazol-2-yl)dodecanamide] | no apparent cytotoxicity | 71.5% | 30% | no apparent cell toxicity | > 50% | 1010 nM | – | – | – | – | – | – | – | –
2 | CN(C(=O)c1ccccc1)c1nc(-c2ccccc2)cs1 [Compound 4e, N-Methyl-N-(4-phenylthiazol-2-yl)benzamide] | – | 123% | – | no apparent cell toxicity | > 50% | 366 nM | – | – | – | – | – | – | – | –
3 | Cn1c(-c2ccccc2)csc1=NC(=O)c1ccc(Cl)cc1 [Compound 5c, 4-Chloro-N-(3-methyl-4-phenylthiazol-2(3H)-ylidene)benzamide] | – | 98.2% | – | – | – | 1120 nM | – | – | – | – | – | – | – | –
4 | CCn1c(-c2ccccc2)csc1=NC(=O)c1cccs1 [Compound 5i, N-(3-Ethyl-4-phenylthiazol-2(3H)-yliene)thiophene-2-carboxamide] | – | – | – | not toxic | – | – | 45% | 97.7% | 2080 nM | – | – | – | – | –
5 | Cn1c(-c2ccccc2)cs/c1=N/C(=O)c1ccccc1 [Compound 5j, N-(3-Methyl-4-phenylthiazol-2(3H)-yliene)benzamide] | strong inhibitor of cell proliferation | 25.2% | 75% | strong inhibitor of cell proliferation | – | 189 nM | – | – | – | – | – | – | – | –
6 | Cc1ccc(-c2cs/c(=N/C(=O)c3ccccc3)n2C)c(C)c1 [Compound 5k, N-(4-(2,4-Dimethylphenyl)-3-methylthiazol-2(3H)-yliene)-benzamide] | no apparent cytotoxity | 121% | – | no apparent cell toxicity; also recorded: no apparent cytotoxity | – | 176 nM | – | – | – | ~80% | > 85% | 55% | most potent compound in blocking cell invasion | notably missing from the actin-rich membrane regions
